This is an account of results in ChEMBL document CHEMBL4422617, “Recent advances in the discovery of small molecules targeting glioblastoma” (Eur J Med Chem, 2019).

One may read the EC50 as the concentration at which the effect is half-maximal. A low value points to greater potency.

For test [1], the system named is U-87 MG. In words: Cytotoxicity against human U87 cells after 72 hrs by AlamarBlue assay. It is filed as functional, cell-based, U-87MG ATCC. Background: Alamar Blue is a resazurin reagent that responds to reducing activity.
Test [2] relates to U-87 MG. Put plainly: Cytotoxicity against human U87 cells expressing EGFRvIII after 72 hrs by AlamarBlue assay. It is filed as functional, cell-based, U-87MG ATCC.
The next test has as its system U-251. In words: Cytotoxicity against human U251 cells after 72 hrs by AlamarBlue assay. It is filed as functional, cell-based. Conditions: U-251, 72 h.
The next test has as its system GBM. In words: Cytotoxicity against GBM cells derived from human patient after 72 hrs by AlamarBlue assay. The class given is functional, cell-based.

Regarding `O=C(CCCc1ccc(-c2cc3ccccc3cn2)cc1)Nc1ccc(O)cc1`, the EC50 with U-87 MG [1] was 600 to 1300 nM; in the test on U-87 MG [2] it was 600 to 1300 nM; with U-251, 600 to 1300 nM; with GBM it was 540 nM.
